# From patent US10538561B2, “Peptide for treating inflammatory diseases” (priority 2015, dated 2020)
# Read-outs that look alike come from different tables or passages of the source.
# Key:
# Caspase-3 enzyme = assay: Caspase-3 assay; type: cell-based, Human; details: HaCaT, 0.1 μM
# Method: Cell lines: Human Keratinocytes (HaCaT); Test Item (TI): IS 181; Treatment regimen: Multiple additions (2)—48 hours; Concentration range: 100 μg/ml to 5000 μg/ml (Duplicate wells); Sera Condition: Medium containing 1% FBS. […] Cells were lysed and protein was estimated. The above lysates were processed further for Caspase-3 enzyme activity assay using colorimetric based method. Percentage induction of Caspase-3 enzyme activation with respect to untreated; Positive control: Anthralin. IS 181 led to induction of Caspase-3 enzyme activation in HaCaT cells at all the concentrations tested except at 100 μg/ml. […] (FIGS. 7A-7B)
# [1] = test system: Human endothelial cells (EA.hy 926); assay: DNA fragmentation in endothelial cells; type: cell-based
# Method: Cell lines: Human endothelial cells (EA.Hy 926); test item: IS 181; treatment regimen: multiple additions (2)—48 hours; concentration range: 100 μg/ml to 5000 μg/ml (Duplicate wells); sera condition: medium containing 1% FBS. […] Cells were lysed and fragmented DNA was precipitated using PEG/NaCl solution. The fragmented DNA was incubated with 0.2 μg/ml of Hoechst 33258 dye and fluorescence was read at 360 ex/460 em. End point: Percentage induction of DNA fragmentation with respect to untreated. Positive control: anthralin. IS 181 led to induction of DNA fragmentation in Ea.hy.926 cells at all the concentrations tested. […] The overall effect of IS 181 on induction of DNA fragmentation with respect to untreated in Ea.hy.926 cells ranged from 15.09% to 64.15% (FIGS. 10A-10B and Table-10).
# [2] = test system: Human Keratinocytes (HaCaT); assay: DNA fragmentation assay in HaCaT; type: cell-based
# Method: Cells were lysed and fragmented DNA was precipitated using PEG/NaCl solution. The fragmented DNA was incubated with 0.2 μg/ml of Hoechst 33258 dye and fluorescence was read at 360 ex/460 em. End point: Percentage induction of DNA fragmentation with respect to untreated Positive control. Anthralin. IS 181 led to induction of DNA fragmentation in HaCaT cells at all the concentrations tested except at 100 μg/ml. […] The overall effect of IS 181 on induction of DNA fragmentation with respect to untreated in HaCaT cells ranged from −18.8% to 83.3%. (FIG. 8 and Table-6).
# [3] = test system: Human Keratinocytes (HaCaT); assay: In vitro combination Anthralin and IS 181 (MTT); type: cell-based; details: Homo sapiens, 72 h, read-out: IC 50 value of Anthralin
# Method: (§1) Percentage cytotoxicity was determined using MTT assay.
# [4] = In vitro combination Anthralin and IS 181 (MTT); type: cell-based, Human; details: human, HaCaT keratinocytes, read-out: percent inhibition of cell viability/cytotoxicity
# Method: as §1
# [5] = test system: Human endothelial cells (EA.hy 926); assay: Inhibition of FBS stimulated endothelial cell proliferation (MTT); type: cell-based
# Method: Cell line: Human endothelial cells (EA.hy 926); test item: IS 181: treatment regimen: multiple additions (3)-72 hours; concentration range: 1 6 g/ml to 5000 6 g/ml (triplicate wells); sera condition: medium containing 10% FBS. […] The cells were then subjected to complete serum starvation. The cells were retreated with 10% FBS to stimulate cellular proliferation. […] Inhibition of FBS stimulated cell proliferation was measured using MTT assay. End point: percentage inhibition of FBS stimulated cell proliferation. Positive controls: anthralin; paclitaxel.
smiles,measurement,setting,value
"O=C1c2c(O)cccc2Cc2cccc(O)c21 [Anthralin, reference compound]",Percentage induction of caspase-3 enzyme activation with respect to untreated,Caspase-3 enzyme,101.85
same,% induction of DNA fragmentation,"[1]; EA.hy926, 0.1 μM",3.77%
same,% induction of DNA fragmentation,"[1]; EA.hy926, 0.5 μM",13.21%
same,% induction of DNA fragmentation,[2]; 0.1 μM,60.42%
same,% induction of DNA fragmentation,[2]; 0.5 μM,168.75%
same,IC50,[3]; IS 181 0 μg/ml,0.558 µM
same,IC50,[3]; with IS 181 10 μg/ml,0.628 µM
same,IC50,[3]; with IS 181 50 μg/ml,0.584 µM
same,IC50,[3]; with IS 181 100 μg/ml,0.522 µM
same,IC50,[3]; with IS 181 500 μg/ml,0.0973 µM
same,IC50,[3]; with IS 181 1000 μg/ml,0.0271 µM
same,IC50,[3]; with IS 181 2000 μg/ml,0.0001 µM
same,"cytotoxicity at 72 h, 0.01 µM",[4]; Anthralin 0.01 μM alone,0.75%
same,"cytotoxicity at 72 h, 0.05 µM",[4]; Anthralin 0.05 μM alone,-2.45%
same,"cytotoxicity at 72 h, 0.1 µM",[4]; Anthralin 0.1 μM alone,9.41%
same,"cytotoxicity at 72 h, 0.5 µM",[4]; Anthralin 0.5 μM alone,41.3%
same,"cytotoxicity at 72 h, 1 µM",[4]; Anthralin 1 μM alone,78.9%
same,"cytotoxicity at 72 h, 5 µM",[4]; Anthralin 5 μM alone,87.9%
same,Absorbance (Mean ± SD) at 540 nm,"[5]; EA.hy926, 0.01 μM",0.46 ± 0.025
same,Absorbance (Mean ± SD) at 540 nm,"[5]; EA.hy926, 0.1 μM",0.45 ± 0.018
same,Absorbance (Mean ± SD) at 540 nm,"[5]; EA.hy926, 0.5 μM",0.42 ± 0.013
same,inhibition at 0.01 µM,"[5]; Homo sapiens, EA.hy 926, EA.hy926, 0.01 μM, read-out: ¾ Inhibition of FBS stimulated cell growth",7.21%
same,inhibition at 0.1 µM,"[5]; Homo sapiens, EA.hy 926, EA.hy926, 0.1 μM, read-out: ¾ Inhibition of FBS stimulated cell growth",14.6%
same,inhibition at 0.5 µM,"[5]; Homo sapiens, EA.hy 926, EA.hy926, 0.5 μM, read-out: ¾ Inhibition of FBS stimulated cell growth",20.4%
